Test results published in ChEMBL document CHEMBL4020740, “Antitubulin effects of aminobenzothiophene-substituted triethylated chromones” (Bioorg Med Chem Lett, 2017).
Active and inactive are the calls of the source. No cut-off for these calls is given here.

Assays:
[1] = Antiproliferative activity against human KBVIN cells by sulforhodamine B assay; assay type: functional, cell-based
[2] = organism: Homo sapiens; assay: Inhibition of tubulin polymerization in interphase stage of human MDA-MB-231 cells at 0.2 uM after 24 hrs by DAPI staining based confocal microscopic analysis
[3] = tested on: MDA-MB-231; assay: Antiproliferative activity against human MDA-MB-231 cells by sulforhodamine B assay
[4] = tested on: MCF7; assay: Antiproliferative activity against human MCF7 cells by sulforhodamine B assay
[5] = tested on: A549; assay: Antiproliferative activity against human A549 cells by sulforhodamine B assay
[6] = tested on: KB; assay: Antiproliferative activity against human KB cells by sulforhodamine B assay
[7] = Lipophilicity, log P of the compound; assay type: physicochemical; conditions: octanol/water

Structure (SMILES) | IC50 [1] | inhibition [2] | IC50 [3] | IC50 [4] | IC50 [5] | IC50 [6] | logP [7]
CC(=O)O[C@H]1C(=O)[C@@]2(C)[C@H]([C@H](OC(=O)c3ccccc3)[C@]3(O)C[C@H](OC(=O)[C@H](O)[C@@H](NC(=O)c4ccccc4)c4ccccc4)C(C)=C1C3(C)C)[C@]1(OC(C)=O)CO[C@@H]1C[C@@H]2O [PACLITAXEL] | 2.04 µM | – | – | – | – | – | –
COc1ccc(/C=C\c2cc(OC)c(OC)c(OC)c2)cc1O | – | Active | – | – | – | – | –
CCC1=C(OC)C(CC)(CC)c2oc(-c3csc4cc(NC(=O)OC(C)(C)C)ccc34)cc(=O)c2C1=O | 5.02 µM | – | 6.52 µM | 6.01 µM | 5.62 µM | 5.13 µM | –
CCC1=C(O)c2c(oc(-c3csc4cc(NC(=O)OC(C)(C)C)ccc34)cc2=O)C(CC)(CC)C1=O | > 40 µM | – | > 40 µM | > 40 µM | > 40 µM | > 40 µM | –
CCC1=C(O)c2c(oc(-c3csc4cc(N)ccc34)cc2=O)C(CC)(CC)C1=O | – | – | – | – | – | – | 2.11
CCC1=C(OC)C(CC)(CC)C(O)=C(C(=O)/C=C/c2csc3ccc(NC(=O)OC(C)(C)C)cc23)C1=O | 5.45 µM | – | 7.48 µM | 7.01 µM | 5.1 µM | 5.88 µM | –
